Test results taken from US10800791B2, “Triazole ACC inhibitors and uses thereof” (Gilead Apollo, LLC, priority 2015, dated 2020).
≈ marks a conversion by molar mass, not a printed value. Like-named read-outs stand apart in the source and are kept apart here.

Experiments:
[1] = tested on: Diplodia maydis (Dm); assay: Growth inhibition assay of fungal pathogens, Dm; format: cell-based; conditions: Stenocarpella maydis, 48 h
Procedure, shortened: (§1)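 Spores from sub-cultured plates were diluted in 17% V8 liquid medium and exposed to compound from DMSO stocks at final concentrations of 50, 10 and 2 ppm or 2, 0.4 and 0.08 ppm. OD600 and visual ratings at 48 h were compared with the 2% DMSO control to give percent growth inhibition.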

[2] = tested on: C. parapsilosis; assay: Antifungal Activity Assay (broth microtiter MIC), C. parapsilosis; format: cell-based, Candida parapsilosis; conditions: Lodderomyces parapsilosis, ATCC22019, 48 h
Procedure, shortened: (§2)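 MIC read by eye at 48 h, comparing challenged wells with the growth control. Yeasts grown overnight on Sabouraud dextrose agar at 35° C, suspended in RPMI 1640+MOPS and added at 2.5×10^3 CFU/mL final, following CLSI M27-A3.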

[3] = tested on: Septoria tritici (St); assay: Growth inhibition assay of fungal pathogens, St; format: cell-based; conditions: Zymoseptoria tritici, 48 h
Procedure, shortened: as §1

[4] = tested on: Rhizoctonia solani (Rs); assay: Growth inhibition assay of fungal pathogens, Rs; format: cell-based; conditions: 48 h
[5] = tested on: Fusarium virguliforme (Fv); assay: Growth inhibition assay of fungal pathogens, Fv; format: cell-based; conditions: 48 h
Procedure, shortened: as §1

[6] = target: human (hACC2) (Homo sapiens, UniProt O00763); assay: In vitro ACC inhibition assay (ADP-Glo), hACC2; format: biochemical; conditions: 5 nM ACC2, 20 μM ATP, 20 μM acetyl-CoA
Sequence of human (hACC2) (O00763 whole entry): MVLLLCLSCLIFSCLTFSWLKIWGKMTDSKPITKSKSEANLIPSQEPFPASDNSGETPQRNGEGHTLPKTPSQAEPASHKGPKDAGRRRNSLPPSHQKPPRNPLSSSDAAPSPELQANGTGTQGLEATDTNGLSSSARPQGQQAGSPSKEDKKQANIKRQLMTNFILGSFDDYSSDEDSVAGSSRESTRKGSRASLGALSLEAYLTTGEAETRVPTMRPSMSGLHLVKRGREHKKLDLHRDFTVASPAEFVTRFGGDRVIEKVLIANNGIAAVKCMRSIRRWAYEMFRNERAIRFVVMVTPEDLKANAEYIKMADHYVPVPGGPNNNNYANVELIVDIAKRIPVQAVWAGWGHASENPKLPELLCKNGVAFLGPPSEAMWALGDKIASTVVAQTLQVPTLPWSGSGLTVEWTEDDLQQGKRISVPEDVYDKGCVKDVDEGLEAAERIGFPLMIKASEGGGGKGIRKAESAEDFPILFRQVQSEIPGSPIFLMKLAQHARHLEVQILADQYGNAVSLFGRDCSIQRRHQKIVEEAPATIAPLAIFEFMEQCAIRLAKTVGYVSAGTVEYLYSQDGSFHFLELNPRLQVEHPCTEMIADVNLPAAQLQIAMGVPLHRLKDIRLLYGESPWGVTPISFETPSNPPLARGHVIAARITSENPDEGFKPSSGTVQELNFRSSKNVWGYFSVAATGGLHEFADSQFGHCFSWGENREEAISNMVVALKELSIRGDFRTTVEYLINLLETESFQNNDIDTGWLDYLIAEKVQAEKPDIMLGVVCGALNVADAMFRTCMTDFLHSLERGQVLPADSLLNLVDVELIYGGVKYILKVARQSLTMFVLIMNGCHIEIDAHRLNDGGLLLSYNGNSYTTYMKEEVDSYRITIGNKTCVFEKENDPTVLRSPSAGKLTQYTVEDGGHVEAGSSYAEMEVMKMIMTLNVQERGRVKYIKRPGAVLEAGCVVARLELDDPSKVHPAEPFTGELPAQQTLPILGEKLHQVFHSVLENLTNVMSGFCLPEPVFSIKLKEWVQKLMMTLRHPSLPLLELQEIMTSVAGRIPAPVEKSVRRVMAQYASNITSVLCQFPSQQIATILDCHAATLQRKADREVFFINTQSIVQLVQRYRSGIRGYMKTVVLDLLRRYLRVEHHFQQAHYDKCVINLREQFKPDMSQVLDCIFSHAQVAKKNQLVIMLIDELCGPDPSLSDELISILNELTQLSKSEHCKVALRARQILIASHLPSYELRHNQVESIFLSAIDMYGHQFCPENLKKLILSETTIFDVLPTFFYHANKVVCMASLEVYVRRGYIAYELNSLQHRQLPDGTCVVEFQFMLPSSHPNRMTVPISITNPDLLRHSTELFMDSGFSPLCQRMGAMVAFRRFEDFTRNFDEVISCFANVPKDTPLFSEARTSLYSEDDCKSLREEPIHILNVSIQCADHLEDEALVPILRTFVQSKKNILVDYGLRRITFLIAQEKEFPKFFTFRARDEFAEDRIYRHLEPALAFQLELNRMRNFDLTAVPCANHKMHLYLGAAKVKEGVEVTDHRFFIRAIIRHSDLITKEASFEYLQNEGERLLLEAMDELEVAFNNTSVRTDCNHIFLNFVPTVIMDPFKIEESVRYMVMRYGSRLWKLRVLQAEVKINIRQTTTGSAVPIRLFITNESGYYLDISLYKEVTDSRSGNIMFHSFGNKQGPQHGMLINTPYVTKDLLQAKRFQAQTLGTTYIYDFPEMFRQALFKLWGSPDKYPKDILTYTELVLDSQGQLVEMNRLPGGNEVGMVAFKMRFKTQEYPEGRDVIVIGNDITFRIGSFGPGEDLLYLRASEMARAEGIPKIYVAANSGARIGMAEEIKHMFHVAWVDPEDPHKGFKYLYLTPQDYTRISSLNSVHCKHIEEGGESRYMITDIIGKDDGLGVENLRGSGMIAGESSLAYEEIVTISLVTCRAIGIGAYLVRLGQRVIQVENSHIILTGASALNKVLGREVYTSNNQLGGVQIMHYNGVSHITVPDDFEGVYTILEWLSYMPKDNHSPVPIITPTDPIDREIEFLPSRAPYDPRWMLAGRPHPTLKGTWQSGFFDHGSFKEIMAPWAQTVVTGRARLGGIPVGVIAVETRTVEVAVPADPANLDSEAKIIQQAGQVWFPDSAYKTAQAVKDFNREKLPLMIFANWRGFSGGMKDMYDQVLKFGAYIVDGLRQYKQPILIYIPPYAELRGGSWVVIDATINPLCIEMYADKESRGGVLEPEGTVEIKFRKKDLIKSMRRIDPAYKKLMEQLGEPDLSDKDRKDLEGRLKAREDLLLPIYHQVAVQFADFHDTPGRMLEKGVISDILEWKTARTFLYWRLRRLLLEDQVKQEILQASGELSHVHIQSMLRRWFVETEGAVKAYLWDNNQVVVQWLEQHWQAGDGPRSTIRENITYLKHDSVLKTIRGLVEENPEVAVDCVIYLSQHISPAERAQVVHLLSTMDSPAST
Description: The detailed procedure is as follows. […] 10 μL ADP glo reagent was added. […] 20 μL kinase detection reagent was added.

[7] = target: fungal (fACC2) (UniProt Q00955); conditions: read-out: fACC2 (in vitro ACC2 Inhibition Assay, IC50), ADP-Glo, 5 nM ACC2, 20 μM ATP, 20 μM acetyl-CoA
Sequence of fungal (fACC2) (Q00955 whole entry): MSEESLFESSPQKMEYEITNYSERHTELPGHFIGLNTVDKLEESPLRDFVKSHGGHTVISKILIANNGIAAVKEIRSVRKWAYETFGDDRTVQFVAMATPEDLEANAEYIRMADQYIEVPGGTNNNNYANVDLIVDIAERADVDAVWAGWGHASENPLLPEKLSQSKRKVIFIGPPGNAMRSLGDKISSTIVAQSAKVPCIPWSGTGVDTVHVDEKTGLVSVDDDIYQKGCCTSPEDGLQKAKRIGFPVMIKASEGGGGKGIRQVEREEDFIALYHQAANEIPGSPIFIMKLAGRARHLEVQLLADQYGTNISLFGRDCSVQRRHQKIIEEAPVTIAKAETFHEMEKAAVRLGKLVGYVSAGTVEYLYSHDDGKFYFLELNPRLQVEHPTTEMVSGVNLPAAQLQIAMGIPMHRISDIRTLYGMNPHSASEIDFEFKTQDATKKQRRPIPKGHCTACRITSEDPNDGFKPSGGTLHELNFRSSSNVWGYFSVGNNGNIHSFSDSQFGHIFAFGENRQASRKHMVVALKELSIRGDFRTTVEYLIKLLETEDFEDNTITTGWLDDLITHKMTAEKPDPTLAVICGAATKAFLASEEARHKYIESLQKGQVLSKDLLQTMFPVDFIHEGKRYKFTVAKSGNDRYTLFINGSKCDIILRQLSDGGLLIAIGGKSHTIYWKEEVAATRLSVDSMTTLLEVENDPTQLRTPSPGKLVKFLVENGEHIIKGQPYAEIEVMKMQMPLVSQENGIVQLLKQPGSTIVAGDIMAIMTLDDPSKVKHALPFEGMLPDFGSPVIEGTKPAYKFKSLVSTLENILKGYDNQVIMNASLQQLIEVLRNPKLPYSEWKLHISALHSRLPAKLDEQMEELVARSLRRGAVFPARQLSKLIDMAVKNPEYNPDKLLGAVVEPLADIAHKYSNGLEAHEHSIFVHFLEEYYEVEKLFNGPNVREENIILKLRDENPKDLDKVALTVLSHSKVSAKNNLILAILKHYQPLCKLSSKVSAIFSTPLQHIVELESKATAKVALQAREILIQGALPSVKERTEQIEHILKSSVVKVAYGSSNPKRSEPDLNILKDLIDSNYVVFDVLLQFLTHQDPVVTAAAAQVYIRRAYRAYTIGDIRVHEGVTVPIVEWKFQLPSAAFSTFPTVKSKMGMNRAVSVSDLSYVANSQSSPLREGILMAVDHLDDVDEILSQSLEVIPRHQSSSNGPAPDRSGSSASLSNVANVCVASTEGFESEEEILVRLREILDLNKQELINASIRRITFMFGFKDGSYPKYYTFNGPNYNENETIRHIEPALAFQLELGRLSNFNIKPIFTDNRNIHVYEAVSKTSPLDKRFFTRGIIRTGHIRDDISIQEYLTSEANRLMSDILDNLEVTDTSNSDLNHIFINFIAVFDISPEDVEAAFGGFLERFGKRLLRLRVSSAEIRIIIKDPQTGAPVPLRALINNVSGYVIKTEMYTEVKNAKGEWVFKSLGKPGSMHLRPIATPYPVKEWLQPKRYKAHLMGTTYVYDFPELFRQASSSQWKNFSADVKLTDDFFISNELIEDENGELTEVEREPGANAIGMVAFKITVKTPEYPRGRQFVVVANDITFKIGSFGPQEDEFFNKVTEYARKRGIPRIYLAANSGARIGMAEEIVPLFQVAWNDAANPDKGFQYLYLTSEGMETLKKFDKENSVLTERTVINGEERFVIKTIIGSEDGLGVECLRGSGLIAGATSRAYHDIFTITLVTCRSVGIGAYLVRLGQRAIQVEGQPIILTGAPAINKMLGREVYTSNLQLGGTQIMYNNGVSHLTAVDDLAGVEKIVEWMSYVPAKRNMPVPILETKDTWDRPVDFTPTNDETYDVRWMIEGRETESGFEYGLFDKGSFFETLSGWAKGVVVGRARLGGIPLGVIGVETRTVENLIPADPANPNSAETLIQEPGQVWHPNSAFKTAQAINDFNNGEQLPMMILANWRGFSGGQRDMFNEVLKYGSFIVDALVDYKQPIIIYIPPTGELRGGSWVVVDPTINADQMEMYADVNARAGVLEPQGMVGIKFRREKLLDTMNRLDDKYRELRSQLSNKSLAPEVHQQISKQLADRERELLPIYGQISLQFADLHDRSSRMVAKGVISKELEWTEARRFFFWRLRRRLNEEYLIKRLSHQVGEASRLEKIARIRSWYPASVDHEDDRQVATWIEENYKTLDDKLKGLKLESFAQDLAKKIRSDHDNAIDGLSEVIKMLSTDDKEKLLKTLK

[8] = tested on: Botrtyis cinerea (Bc); assay: Growth inhibition assay of fungal pathogens, Bc; format: cell-based; conditions: 48 h
Procedure, shortened: as §1

[9] = tested on: Fusarium moniliforme (Fm); assay: Growth inhibition assay of fungal pathogens, Fm; format: cell-based; conditions: for IC90: Fusarium verticillioides, 48 h, read-out: Concentration at 90% Inhibition Fm
Procedure, shortened: as §1

[10] = tested on: C. albicans; assay: Antifungal Activity Assay (broth microtiter MIC), C. albicans; format: cell-based, Candida albicans; conditions: Candida albicans, ATCC90028, 48 h
Procedure, shortened: as §2

[11] = read-out: Concentration at 90% Inhibition Dm, Diplodia maydis, growth inhibition at 48 hours vs 2% DMSO control
[12] = read-out: Concentration at 90% Inhibition Dm, Diplodia maydis, growth inhibition vs 2% DMSO control at 48 hours
[13] = read-out: MIC, C. parapsilosis ATCC 22019, Table 3a, 3 replicates, MIC recorded at 48 h
[14] = read-out: MIC, C. parapsilosis ATCC 22019, Table 3b (additional results), 3 replicates, MIC recorded at 48 h
[15] = read-out: Concentration at 90% Inhibition St, Septoria tritici, growth inhibition at 48 hours vs 2% DMSO control
[16] = read-out: Concentration at 90% Inhibition St, Septoria tritici, growth inhibition vs 2% DMSO control at 48 hours
[17] = read-out: Concentration at 90% Inhibition Rs, Rhizoctonia solani, mycelial plugs, growth inhibition at 48 hours vs 2% DMSO control
[18] = read-out: Concentration at 90% Inhibition Rs, Rhizoctonia solani, mycelial plugs, growth inhibition vs 2% DMSO control at 48 hours
[19] = read-out: Concentration at 90% Inhibition Fv, Fusarium virguliforme, growth inhibition at 48 hours vs 2% DMSO control
[20] = read-out: Concentration at 90% Inhibition Fv, Fusarium virguliforme, growth inhibition vs 2% DMSO control at 48 hours
[21] = read-out: Concentration at 90% Inhibition Bc, Botrtyis cinerea, growth inhibition at 48 hours vs 2% DMSO control
[22] = read-out: Concentration at 90% Inhibition Bc, Botrtyis cinerea, growth inhibition vs 2% DMSO control at 48 hours
[23] = Fusarium moniliforme, growth inhibition at 48 hours vs 2% DMSO control
[24] = read-out: MIC, C. albicans ATCC 90028, Table 3a, 3 replicates, MIC recorded at 48 h
[25] = read-out: MIC, C. albicans ATCC 90028, Table 3b (additional results), 3 replicates, MIC recorded at 48 h
[26] = Diplodia maydis, growth inhibition at 48 hours vs 2% DMSO control, read-out: Concentration at 90% Inhibition Dm
[27] = Diplodia maydis, growth inhibition vs 2% DMSO control at 48 hours, read-out: Concentration at 90% Inhibition Dm
[28] = Table 3a, ATCC 22019, 3 replicates, MIC recorded at 48 h, read-out: MIC, C. parapsilosis ATCC 22019
[29] = Table 3b (additional results), ATCC 22019, 3 replicates, MIC recorded at 48 h, read-out: MIC, C. parapsilosis ATCC 22019
[30] = Septoria tritici, growth inhibition at 48 hours vs 2% DMSO control, read-out: Concentration at 90% Inhibition St
[31] = Septoria tritici, growth inhibition vs 2% DMSO control at 48 hours, read-out: Concentration at 90% Inhibition St
[32] = mycelial plugs, growth inhibition at 48 hours vs 2% DMSO control, read-out: Concentration at 90% Inhibition Rs
[33] = mycelial plugs, growth inhibition vs 2% DMSO control at 48 hours, read-out: Concentration at 90% Inhibition Rs
[34] = growth inhibition at 48 hours vs 2% DMSO control, read-out: Concentration at 90% Inhibition Fv
[35] = growth inhibition vs 2% DMSO control at 48 hours, read-out: Concentration at 90% Inhibition Fv
[36] = Botrtyis cinerea, growth inhibition at 48 hours vs 2% DMSO control, read-out: Concentration at 90% Inhibition Bc
[37] = Botrtyis cinerea, growth inhibition vs 2% DMSO control at 48 hours, read-out: Concentration at 90% Inhibition Bc
[38] = Fusarium moniliforme, growth inhibition vs 2% DMSO control at 48 hours
[39] = Table 3a, ATCC 90028, 3 replicates, MIC recorded at 48 h, read-out: MIC, C. albicans ATCC 90028
[40] = Table 3b (additional results), ATCC 90028, 3 replicates, MIC recorded at 48 h, read-out: MIC, C. albicans ATCC 90028

Compound | IC90 [1, 11] [µg/mL] | IC90 [1, 12] [µg/mL] | MIC [2, 13] [µg/mL] | MIC [2, 14] [µg/mL] | IC90 [3, 15] [µg/mL] | IC90 [3, 16] [µg/mL] | IC90 [4, 17] [µg/mL] | IC90 [4, 18] [µg/mL] | IC90 [5, 19] [µg/mL] | IC90 [5, 20] [µg/mL] | IC50 ([6]; Table 2a) [nM] | IC50 ([6]; Table 2b, additional results) [nM] | IC50 ([7]; Table 2a) [nM] | IC50 ([7]; Table 2b, additional results) [nM] | IC90 [8, 21] [µg/mL] | IC90 [8, 22] [µg/mL] | Concentration at 90% Inhibition Fm [9, 23] | IC90 [9] [µg/mL] | MIC [10, 24] [µg/mL] | MIC [10, 25] [µg/mL] | also measured
COc1ccc(F)cc1[C@H](Cn1c(=O)n(C(C)(C)C(=O)NC(C)C)c(=O)c2c(C)c(-n3nccn3)sc21)OCCO [Compound I-43, (R)-2-(1-(2-(5-fluoro-2-methoxyphenyl)-2-(2-hydroxyethoxy)ethyl)-5-methyl-2,4-dioxo-6-(2H-1,2,3-triazol-2-yl)-1,4-dihydrothieno[2,3-d]pyrimidin-3(2H)-yl)-N-isopropyl-2-methylpropanamide] | 0.4 (≈ 0.68 µM) | 0.4 (≈ 0.68 µM) | 0.25 to 1 (≈ 0.425 to 1.7 µM) | 0.25 to 1 (≈ 0.425 to 1.7 µM) | 2 (≈ 3.4 µM) | 10 (≈ 17 µM) | 0.08 (≈ 0.136 µM) | 0.08 (≈ 0.136 µM) | 0.4 (≈ 0.68 µM) | 0.4 (≈ 0.68 µM) | 5 to 10 | 5 to 10 | 0.4 to 1 | 0.3 to 1 | 2 (≈ 3.4 µM) | 2 (≈ 3.4 µM) | AA (compound concentration of 0.08 ppm at 90% inhibition of fungal pathogens) | 0.08 (≈ 0.136 µM) | 0.25 to 1 (≈ 0.425 to 1.7 µM) | 0.25 to 1 (≈ 0.425 to 1.7 µM) | 
COc1ccc(F)cc1[C@H](Cn1c(=O)n(C(C)(C)C(=O)N2CCCC2)c(=O)c2c(C)c(-n3nccn3)sc21)OCCO [Compound I-44, (R)-1-(2-(5-fluoro-2-methoxyphenyl)-2-(2-hydroxyethoxy)ethyl)-5-methyl-3-(2-methyl-1-oxo-1-(pyrrolidin-1-yl)propan-2-yl)-6-(2H-1,2,3-triazol-2-yl)thieno[2,3-d]pyrimidine-2,4(1H,3H)-dione] |  |  |  |  |  |  |  |  |  |  | 5 to 10 | 5 to 10 | 0.4 to 1 | 0.3 to 1 |  |  |  |  |  |  | IC90 [1, 26]: 2 µg/mL (≈ 3.33 µM); IC90 [1, 27]: 10 µg/mL (≈ 16.6 µM); MIC [2, 28]: 2.1 to 4 µg/mL (≈ 3.5 to 6.66 µM); MIC [2, 29]: 1.01 to 2 µg/mL (≈ 1.68 to 3.33 µM); IC90 [3, 30]: > 50 µg/mL; IC90 [3, 31]: > 50 µg/mL; IC90 [4, 32]: 2 µg/mL (≈ 3.33 µM); IC90 [4, 33]: 10 µg/mL (≈ 16.6 µM); IC90 [5, 34]: 0.4 µg/mL (≈ 0.666 µM); IC90 [5, 35]: 0.4 µg/mL (≈ 0.666 µM); IC90 [8, 36]: 2 µg/mL (≈ 3.33 µM); IC90 [8, 37]: 2 µg/mL (≈ 3.33 µM); IC90 [9, 23]: 0.4 µg/mL (≈ 0.666 µM); IC90 [9, 38]: 0.4 µg/mL (≈ 0.666 µM); MIC [10, 39]: 2.1 to 4 µg/mL (≈ 3.5 to 6.66 µM); MIC [10, 40]: 1.01 to 2 µg/mL (≈ 1.68 to 3.33 µM)
COc1ccc(F)cc1[C@H](Cn1c(=O)n(C(C)(C)C(=O)NC(C)C)c(=O)c2c(C)c(-n3nccn3)sc21)OC[C@@H](C)O [Compound I-45, 2-(1-((R)-2-(5-fluoro-2-methoxyphenyl)-2-((R)-2-hydroxypropoxy)ethyl)-5-methyl-2,4-dioxo-6-(2H-1,2,3-triazol-2-yl)-1,4-dihydro-thieno[2,3-d]pyrimidin-3(2H)-yl)-N-isopropyl-2-methylpropanamide] | 0.4 (≈ 0.664 µM) | 0.4 (≈ 0.664 µM) | 0.25 to 1 (≈ 0.415 to 1.66 µM) | 1.01 to 2 (≈ 1.68 to 3.32 µM) | 2 (≈ 3.32 µM) | 10 (≈ 16.6 µM) | 0.08 (≈ 0.133 µM) | 0.08 (≈ 0.133 µM) | 0.4 (≈ 0.664 µM) | 0.4 (≈ 0.664 µM) | 10 to 40 | 10 to 40 | 1 to 5 | 1 to 5 | 2 (≈ 3.32 µM) | 2 (≈ 3.32 µM) | AA (compound concentration of 0.08 ppm at 90% inhibition of fungal pathogens) | 0.08 (≈ 0.133 µM) | 0.25 to 1 (≈ 0.415 to 1.66 µM) | 0.25 to 1 (≈ 0.415 to 1.66 µM) | 
COc1ccc(F)cc1[C@H](Cn1c(=O)n(C(C)(C)C(=O)N2CCCC2)c(=O)c2c(C)c(-n3nccn3)sc21)OC[C@@H](C)O [Compound I-46, 1-((R)-2-(5-fluoro-2-methoxyphenyl)-2-((R)-2-hydroxypropoxy)ethyl)-5-methyl-3-(2-methyl-1-oxo-1-(pyrrolidin-1-yl)propan-2-yl)-6-(2H-1,2,3-triazol-2-yl)thieno[2,3-d]pyrimidine-2,4(1H,3H)-dione] |  |  |  |  |  |  |  |  |  |  | 5 to 10 | 5 to 10 | 1 to 5 | 1 to 5 |  |  |  |  |  |  | IC90 [1, 26]: 2 µg/mL (≈ 3.25 µM); IC90 [1, 27]: 2 µg/mL (≈ 3.25 µM); MIC [2, 28]: 1.1 to 2 µg/mL (≈ 1.79 to 3.25 µM); MIC [2, 29]: 1.01 to 2 µg/mL (≈ 1.64 to 3.25 µM); IC90 [3, 30]: > 50 µg/mL; IC90 [3, 31]: > 50 µg/mL; IC90 [4, 32]: 0.4 µg/mL (≈ 0.651 µM); IC90 [4, 33]: 0.4 µg/mL (≈ 0.651 µM); IC90 [5, 34]: 2 µg/mL (≈ 3.25 µM); IC90 [5, 35]: 2 µg/mL (≈ 3.25 µM); IC90 [8, 36]: 2 µg/mL (≈ 3.25 µM); IC90 [8, 37]: 2 µg/mL (≈ 3.25 µM); IC90 [9, 23]: 0.08 µg/mL (≈ 0.13 µM); IC90 [9, 38]: 0.08 µg/mL (≈ 0.13 µM); MIC [10, 39]: 0.25 to 1 µg/mL (≈ 0.407 to 1.63 µM); MIC [10, 40]: 0.25 to 1 µg/mL (≈ 0.407 to 1.63 µM)
COc1ccc(F)cc1[C@H](Cn1c(=O)n(C(C)(C)C(=O)NC(C)C)c(=O)c2c(C)c(-n3nccn3)sc21)OC[C@H](C)O [Compound I-47, 2-(1-((R)-2-(5-fluoro-2-methoxyphenyl)-2-((S)-2-hydroxypropoxy)ethyl)-5-methyl-2,4-dioxo-6-(2H-1,2,3-triazol-2-yl)-1,4-dihydro-thieno[2,3-d]pyrimidin-3(2H)-yl)-N-isopropyl-2-methylpropanamide] | 0.4 (≈ 0.664 µM) | 0.4 (≈ 0.664 µM) | 0.25 to 1 (≈ 0.415 to 1.66 µM) | 1.01 to 2 (≈ 1.68 to 3.32 µM) | 10 (≈ 16.6 µM) | > 50 | 0.4 (≈ 0.664 µM) | 0.4 (≈ 0.664 µM) | 0.4 (≈ 0.664 µM) | 0.4 (≈ 0.664 µM) | 10 to 40 | 10 to 40 | 1 to 5 | 1 to 5 | 0.4 (≈ 0.664 µM) | 0.4 (≈ 0.664 µM) | AA (compound concentration of 0.08 ppm at 90% inhibition of fungal pathogens) | 0.08 (≈ 0.133 µM) | 0.25 to 1 (≈ 0.415 to 1.66 µM) | 0.25 to 1 (≈ 0.415 to 1.66 µM) | 
